In article PMC10844371 (Diabetologia, 2023):
“And” between values parts separate entries of the source, which are not always exact repeats. Identical values can stand only once.

Tests used:
[1] = mouse, in vivo, ip
Procedure: C57Bl6N mice were fasted for 5 h prior to the ITTs. GLP-1(9–36) (100 µg/kg body weight) was injected intraperitoneally before or with insulin as indicated. The relative high dose of GLP-1(9–36) was used because of high basal levels of the peptide. In the control experiments, mice were injected with the saline solvent (154 mmol/l NaCl). […] Total GLP-1 was measured by ELISA (81508; Crystal Chem, Zaandam, the Netherlands; CV<10%).

[2] = target: T1, human GCGR expressed in HEK293T cells (Homo sapiens, UniProt P47871); test: G protein dissociation (TRUPATH BRET2 biosensor); format: cell-based
T1 construct: expressed in transfected cells; host or cells: HEK293T (ATCC CRL-3216)
Procedure: G protein dissociation was measured using the TRUPATH biosensor platform. TRUPATH constructs were obtained from Addgene (kit no. 1000000163 [21]). […] Cells were transfected with equal amounts of GCGR, GαsS-, Gαi1-, Gαi2-, Gαi3-, GαoA-, GαoB- or Gαz-Rluc8, Gβ3, and Gγ1-, Gγ8- or Gγ9-GFP2 (as described in [21]), and pcDNA3.1(‑) using polyethyleneimine (ESM Table 3). After 24 h, cells were seeded at 50,000 cells/well of a 0.01% poly-L-lysine-coated white 96-well plate (Greiner) and grown overnight. Cells were washed with Hanks’ Balanced Salt Solution (Lonza) buffered with 20 mmol/l HEPES (Sigma) and supplemented with 0.1% BSA (Sigma) (wt/vol.). Cells were incubated in 5 μmol/l coelenterazine 400a (Nanolight Technologies) for 5 min. […] The bioluminescence resonance energy transfer 2 (BRET2) ratio was calculated (λ515/λ400) and the time point corresponding to maximal dissociation was used to generate dose–response curves. pEC50 values were calculated using the ‘three parameter log(agonist) vs response’ model in GraphPad Prism9 (version 9.1.0; graphpad.com).

human pancreatic islets = test: Glucagon secretion in human islets (ELISA); format: cell-based
Procedure: Human pancreatic islets were isolated (with ethical approval and clinical consent) as previously described. Islets from the pancreases of 18 healthy donors and five donors with type 2 diabetes were used (see electronic supplementary material [ESM] Table 1; ESM Human islets checklist).
Mouse islets were used acutely, except for studies with PTX, wherein islets were treated overnight with the toxin. Human islets were maintained in culture for up to 48 h in RPMI medium containing 10% (vol./vol.) FCS, 1% (vol./vol.) penicillin/streptomycin and 5 mmol/l glucose. Experiments were conducted as previously described. Islets were incubated in 0.3 ml EC1 or EC2 media (ESM Table 2) supplemented with glucose and other reagents as indicated. Glucagon was determined by ELISA (Mercodia).
All data are reported, unless otherwise stated, as mean values ± SEM for the indicated number of experiments using islets from multiple mice. For hormone release studies, islets were isolated and pooled from 4–16 mice. These islets were then subdivided into groups of 12–20 size-matched islets. Each unique set of islets counted as an experiment with the experiments repeated on 2–4 days. Similarly, each unique group of human islets was treated as an experiment. […] In the Ca^2+ imaging and granule docking experiment, each cell represents an experiment making sure that cells from multiple donors/animals were used. For the in vivo experiments and the perfused pancreas, each mouse count represents an experiment. For two groupings, a t test was conducted. For multiple comparisons, one-way ANOVA was conducted. All statistical tests were performed using Graphpad Prism (version 9.1.0; graphpad.com). It was ascertained that the data were normally distributed.

C57Bl6N mice = test: Plasma glucose and glucagon during insulin-induced hypoglycaemia; format: in vivo, mouse
Procedure: In the experiments involving the use of REMD2.59, mice were injected intraperitoneally with the antagonist (5 mg/kg body weight in PBS) or vehicle 24 h prior to insulin-induced hypoglycaemia. Following the completion of the experiment, the mice were euthanised and the pancreases were resected and weighed.

[3] = test system: PKA activity in alpha cells; test: PKA activity measurements (AKAR3) in alpha cells in intact islets; format: cell-based, mouse
Procedure: PKA activity was measured using AKAR3 as previously described. The cells were continuously superfused at a rate of 60 μl/min with EC4 (ESM Table 2).

human alpha cells = test: TIRF imaging of docked secretory granules in human alpha cells; format: cell-based; conditions: 10 pmol/l
Procedure: (§1) Cells were imaged using total internal reflection fluorescence (TIRF) microscopy (AxioObserver Z1 with a ×100/1.45 objective [Carl Zeiss] and a diode-pumped solid state laser at 491 nm). For these measurements, EC1 was used (ESM Table 2). Images from cells infected with preproglucagon promoter (PPPG)-neuropeptide Y (NPY)-enhanced green fluorescent protein (EGFP) virus were recorded using an electron-multiplying charge-coupled device camera (Photometrics Evolve) using ZEN blue. Single images of cells were acquired to measure the number of docked granules. Incoming and outgoing granules during visiting, docking and undocking were determined from multiple frame movies as described previously. Candidate docking or undocking events were found manually as granules that approached the TIRF field with an axial component and became laterally confined for at least two frames. We defined docking as granules that remained confined for at least 1 min. Visitors were those granules that remained for <1 min after appearing at the plasma membrane. Undocking was defined as slow movement of a previously docked granule away from its docking site. Granule density was calculated using a script that used the built-in ‘find maxima’ function in ImageJ (version 1.53c; http://rsbweb.nih.gov/ij) for spot detection.

mouse alpha cells = test: TIRF imaging of docked secretory granules in mouse alpha cells; format: cell-based
Procedure: as §1

T1 sequence (P47871 26-477): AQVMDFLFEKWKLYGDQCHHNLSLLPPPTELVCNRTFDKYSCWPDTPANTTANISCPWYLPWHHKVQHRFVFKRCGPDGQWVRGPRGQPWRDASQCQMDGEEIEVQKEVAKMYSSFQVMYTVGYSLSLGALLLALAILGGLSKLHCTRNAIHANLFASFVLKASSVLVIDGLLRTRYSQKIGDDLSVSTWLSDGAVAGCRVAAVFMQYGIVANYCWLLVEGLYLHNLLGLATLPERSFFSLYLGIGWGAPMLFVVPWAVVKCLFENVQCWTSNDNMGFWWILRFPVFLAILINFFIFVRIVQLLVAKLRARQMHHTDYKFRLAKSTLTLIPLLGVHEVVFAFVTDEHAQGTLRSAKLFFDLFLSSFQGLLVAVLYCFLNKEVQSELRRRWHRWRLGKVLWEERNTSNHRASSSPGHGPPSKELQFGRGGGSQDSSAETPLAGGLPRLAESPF

For `CC[C@H](C)[C@H](NC(=O)[C@H](Cc1ccccc1)NC(=O)[C@H](CCC(=O)O)NC(=O)[C@H](CCCCN)NC(=O)[C@H](C)NC(=O)[C@H](C)NC(=O)[C@H](CCC(N)=O)NC(=O)CNC(=O)[C@H](CCC(=O)O)NC(=O)[C@H](CC(C)C)NC(=O)[C@H](Cc1ccc(O)cc1)NC(=O)[C@H](CO)NC(=O)[C@H](CO)NC(=O)[C@@H](NC(=O)[C@H](CC(=O)O)NC(=O)[C@H](CO)NC(=O)[C@@H](NC(=O)[C@H](Cc1ccccc1)NC(=O)[C@@H](NC(=O)CNC(=O)[C@@H](N)CCC(=O)O)[C@@H](C)O)[C@@H](C)O)C(C)C)C(=O)N[C@@H](C)C(=O)N[C@@H](Cc1c[nH]c2ccccc12)C(=O)N[C@@H](CC(C)C)C(=O)N[C@H](C(=O)N[C@@H](CCCCN)C(=O)NCC(=O)N[C@@H](CCCNC(=N)N)C(N)=O)C(C)C` [GLP-1(9–36)], the “time for which plasma GLP-1 remained at >100 pmol/l” value [1] was over 45 min, the “efficacy of GoA dissociation relative to glucagon” value ([2]; GCGR, GoA, HEK293T) was ~ 10% and the EC50 ([2]; Gα i2, mean ± S.E.M.) was 501 nM. The pEC50 ([2]; Gα oA, mean ± S.E.M.) was 7.55±-0.52, the “inhibition of glucagon secretion” value (human pancreatic islets; human islets, 10 pmol/l, 1 mmol/l glucose) was ~ 50% and the glucagonostatic effect (human pancreatic islets; human islets, 6 mmol/l glucose) was “exerted a glucagonostatic effect”. The glucagonostatic effect (human pancreatic islets; human islets, 20 mmol/l glucose) was “not at 20 mmol/l glucose”, the “suppression of glucagon release in islets from donors with type 2 diabetes” value (human pancreatic islets; islets from donors with type 2 diabetes) was “loss” and the “decrease of plasma glucagon AUC during hypoglycaemia” value (C57Bl6N mice; 100 µg/kg i.p. at t=−15 min, AUC over 45 min after insulin, 13 or 14 mice) was 30% and ~ 30%. For the same compound, the “effect on hypoglycaemia-triggered increase in plasma glucagon” value (C57Bl6N mice; 100 µg/kg i.p. at t=−15 min, insulin 0.75 U/kg) was “slightly reduced”, the “glucagonostatic effect when administered simultaneously with insulin” value (C57Bl6N mice; co-injected with insulin 0.75 U/kg, p=0.53) was “No glucagonostatic effect” and the “glucagonostatic effect in the presence of REMD2.59” value (C57Bl6N mice; mice pretreated with REMD2.59, GLP-1(9–36) 100 µg/kg) was “no glucagonostatic effect”. The “effect on basal plasma glucagon” value (C57Bl6N mice; normoglycaemic conditions, prior to insulin injection, 100 µg/kg i.p.) was “not affected”, the “effect on PKA activity in the presence of L-168049” value ([3]; 10 and 100 pmol/l, L-168049 100 nmol/l) was “without effect” and the “inhibitory effect on PKA activity after PTX pretreatment” value ([3]; PTX pretreatment) was “abolished”. For the same compound, the “concentrations at which the decrease in cAMP/PKA activity was maximal” value ([3]; alpha cells in intact mouse islets) was over 10 pmol/L, the increase of docking (human alpha cells; alpha cells from donors with type 2 diabetes) was 40% and the “reduction of the number of docked granules” value (human alpha cells; alpha cells from healthy donors, after 15 min) was 52%. For the same compound, the “time at which reduction of docked granules was maximal” value (mouse alpha cells; 10 pmol/l) was 10 min, the “reduction of the number of docked granules” value (mouse alpha cells; 10 pmol/l, 1 mmol/l glucose, mouse alpha cells) was 40% and the “how granule density was reduced (docking, undocking, arrival)” value (mouse alpha cells; 10 pmol/l, during 15 min) was “inhibiting granule docking and stimulating granule undocking, while not affecting the rate of arrival”. The “capacity to reduce docked granules in the presence of L-168049” value (mouse alpha cells; L-168049 100 nmol/l) was “prevented”, the “capacity to reduce docked granules after PTX pretreatment” value (mouse alpha cells; PTX 100 ng/ml for 16 h) was “prevented” and the “capacity to reduce docked granules in the presence of exendin(9–39)” value (mouse alpha cells; exendin(9–39) 100 nmol/l, 15 min after addition) was “resistant”. The “effect on granule docking in the presence of ω-agatoxin” value (mouse alpha cells; ω-agatoxin 200 nmol/l) was “no additive effect”.
